Laboratory results as given in patent US9611232B2, “Oxazolidinone and imidazolidinone compounds” (Hoffmann-La Roche Inc., priority 2012, dated 2017).
pIC50: −log10 of the molar value. “And” between values parts separate entries of the source, which are not always exact repeats. Equal entries are not always repeated.

target: h KCa3.1 (Homo sapiens (Human), UniProt O15554); assay: Electrophysiology patch clamp (PatchXpress); type: cell-based; details: CHO cells over-expressing h KCa3.1, read-out: IC50 Ephys
Experimental: Electrophysiology Patch Clamp
Compounds were tested using a PatchXpress® (Model 7000A, Molecular Devices, Union City Calif.) on CHO cells over-expressing h KCa3.1 at ChanTest Corporation, 14656 Neo Parkway, Cleveland, Ohio.

| pIC50 | SMILES |
| --- | --- |
| 7.35 | NC(=O)CN1C(=O)OC(c2ccc(F)cc2)(c2ccc(F)cc2)[C@@H]1c1ccc(F)cc1 [Example 7, 2-[(S)-4,5,5-Tris-(4-fluoro-phenyl)-2-oxo-oxazolidin-3-yl]-acetamide] |
| 7.66 | NC(=O)CN1C(=O)OC(c2ccc(F)cc2)(c2ccc(F)cc2)[C@@H]1c1ccccc1F [Example 11, 2-[(S)-5,5-Bis-(4-fluoro-phenyl)-4-(2-fluoro-phenyl)-2-oxo-oxazolidin-3-yl]-acetamide] |

Further lines, the compound ahead of its results:

| SMILES | pIC50 |
| --- | --- |
| CCOC(=O)CN1C(=O)O[C@@H](c2cccc(C(F)(F)F)c2)[C@H]1c1ccc(F)cc1 (racemic) [Example 32, [(4RS,5SR)-4-(4-Fluoro-phenyl)-2-oxo-5-(3-trifluoromethyl-phenyl)-oxazolidin-3-yl]-acetic acid ethyl ester] | 7.21 |
| NC(=O)CN1C(=O)OC(c2ccc(F)cc2)(c2ccc(F)cc2)[C@@H]1c1ccccc1 [Example 1, (S)-2-(5,5-bis(4-fluorophenyl)-2-oxo-4-phenyloxazolidin-3-yl)acetamide] | 7.24 |

target: KCa3.1 (Homo sapiens (Human), UniProt O15554); assay: Thallium influx assay (FLIPR, FluxOR); type: cell-based; details: CHOK1 cells over-expressing KCa3.1; thallium (3.3 mM)/ionomycin (1 μM) activation
Experimental: The thallium influx assay was performed with CHOK1 cells over-expressing KCa3.1 obtained from Evotec and maintained in MEM Alpha medium supplemented with 10% fetal bovine serum, 100 U/ml penicillin/[…] streptomycin and 250 μg/ml G418.
CHOK1 wild type cells were passaged using F12/Ham's medium supplemented with 10% fetal bovine serum, 2 mM glutamine, 100 U/ml penicillin/[…] streptomycin. All cells were cultured in T175 flasks.
Before the day of the assay, cells were harvested from culture flasks using standard trypsin digestion. Cells were counted and densities adjusted and dispensed into 384-well poly-D-lysine coated plates at 7500 […], assay plates were incubated overnight in CO2 incubator at 37° C.
The following day, growth media was removed followed by the addition of 25 ul/well of FluxOR™ (Invitrogen) loading dye in a gluconate based assay buffer (135 mM NaGluconate,
2.5 mM Kgluconate, 2 mM CaNO3, 1 mM MgNO3, 10 mM HEPES (acid), 5 mM glucose pH adjusted to 7.4). Assay plates were incubated for 1 hour at 37° C. The loading dye was then replaced with gluconate assay buffer containing probenecid.
Compounds diluted in gluconate buffer were transferred into the assay plates (25 μl/well) followed by incubation for 20 minutes at room temperature. The assay plates were then transferred to a Fluorometric Imaging Plate Reader (FLIPR), a baseline was read for twenty second capture, followed by the addition of 25 μl/well of channel activation solution in gluconate buffer—for KCa3.1 cells thallium (3.3 mM)/ionomycin(1 μM) was used and for the wild type, ionomycin only, then fluorescence was monitored for another 90 seconds.

| pIC50 | SMILES |
| --- | --- |
| 5.81 | CCOC(=O)CN1C(=O)O[C@@H](c2cccc(C(F)(F)F)c2)[C@H]1c1cccc(C(F)(F)F)c1 (racemic) [Example 33] |
| 5.17 | CCOC(=O)CN1C(=O)O[C@@H](c2ccc(F)cc2)[C@H]1c1ccc(F)cc1 (racemic) [Example 34] |
| 5.31 | CCNC(=O)CN1C(=O)O[C@@H](c2cccc(C(F)(F)F)c2)[C@H]1c1ccc(F)cc1 (racemic) [Example 37] |
| 4.96 | O=C1O[C@@H](c2cccc(C(F)(F)F)c2)[C@@H](c2ccc(F)cc2)N1Cc1ncco1 (racemic) [Example 39, (4RS,5SR)-4-(4-fluorophenyl)-3-(oxazol-2-ylmethyl)-5-(3-(trifluoromethyl)phenyl)oxazolidin-2-one] |
| 6.20 | NC(=O)CN1C(=O)OC(c2cccc(F)c2)(c2cccc(F)c2)[C@@H]1c1ccccc1 [Example 3, 2-[(S)-5,5-Bis-(3-fluoro-phenyl)-2-oxo-4-phenyl-oxazolidin-3-yl]-acetamide] |
| 6.18 and 5.94 | NC(=O)CN1C(=O)OC(c2ccc(F)cc2)(c2ccc(F)cc2)[C@@H]1c1ccc(F)cc1F [Example 5, 2-[(S)-4-(2,4-Difluoro-phenyl)-5,5-bis-(4-fluoro-phenyl)-2-oxo-oxazolidin-3-yl]-acetamide] |
| 6.14 | NC(=O)CN1C(=O)OC(c2ccc(F)cc2)(c2ccc(F)cc2)[C@@H]1c1ccc(F)cc1 [Example 7, 2-[(S)-4,5,5-Tris-(4-fluoro-phenyl)-2-oxo-oxazolidin-3-yl]-acetamide] |
| 5.22 | NC(=O)CN1C(=O)OC(c2ccc(F)cc2)(c2ccc(F)cc2)C1c1cccc(F)c1 (stereo not shown) [Example 9, 2-(4-(3-fluorophenyl)-5,5-bis(4-fluorophenyl)-2-oxooxazolidin-3-yl)acetamide] |
| 6.60 | NC(=O)CN1C(=O)OC(c2ccc(F)cc2)(c2ccc(F)cc2)[C@@H]1c1ccccc1F [Example 11, 2-[(S)-5,5-Bis-(4-fluoro-phenyl)-4-(2-fluoro-phenyl)-2-oxo-oxazolidin-3-yl]-acetamide] |
| 5.96 | CCOC(=O)CN1C(=O)OC(c2ccccc2F)(c2ccccc2F)[C@@H]1c1ccccc1F [Example 12, [(S)-4,5,5-Tris-(2-fluoro-phenyl)-2-oxo-oxazolidin-3-yl]acetic acid ethyl ester] |
| 5.44 | CCOC(=O)CN1C(=O)OC(c2cccc(F)c2)(c2cccc(F)c2)[C@@H]1c1ccccc1F [Example 14, [(S)-5,5-Bis-(3-fluoro-phenyl)-4-(2-fluoro-phenyl)-2-oxo-oxazolidin-3-yl]-acetic acid ethyl ester] |
| 6.22 | CNC(=O)CN1C(=O)OC(c2ccc(F)cc2)(c2ccc(F)cc2)[C@@H]1c1ccccc1F [Example 22, (S)-2-(4-(2-fluorophenyl)-5,5-bis(4-fluorophenyl)-2-oxooxazolidin-3-yl)-N-methylacetamide] |
| 5.71 | CCNC(=O)CN1C(=O)OC(c2ccc(F)cc2)(c2ccc(F)cc2)[C@@H]1c1ccccc1F [Example 23, (S)—N-ethyl-2-(4-(2-fluorophenyl)-5,5-bis(4-fluorophenyl)-2-oxooxazolidin-3-yl)acetamide] |
| 5.00 | O=C1OC(c2ccc(F)cc2)(c2ccc(F)cc2)[C@H](c2ccccc2F)N1Cc1nnc[nH]1 [Example 25, (S)-3-((4H-1,2,4-triazol-3-yl)methyl)-4-(2-fluorophenyl)-5,5-bis(4-fluorophenyl)oxazolidin-2-one] |
| 5.04 | CCOC(=O)CN1C(=O)OC(c2ccc(F)cc2)(c2ccc(F)cc2)C1c1cccnc1 (stereo not shown) [Example 26, Ethyl 2-(5,5-bis(4-fluorophenyl)-2-oxo-4-(pyridin-3-yl)oxazolidin-3-yl)acetate] |
| 6.11 | NC(=O)CN1C(=O)OC(c2ccc(F)c(F)c2)(c2ccc(F)c(F)c2)[C@@H]1c1ccccc1 [Example 28, (S)-2-(5,5-bis(3,4-difluorophenyl)-2-oxo-4-phenyloxazolidin-3-yl)acetamide] |
| 4.76 | NC(=O)CN1C(=O)OC(c2ccc(F)cc2)(c2ccc(F)cc2)C1c1ccccn1 (stereo not shown) [Example 30, 2-(5,5-bis(4-fluorophenyl)-2-oxo-4-(pyridin-2-yl)oxazolidin-3-yl)acetamide] |
| 6.35 | CCOC(=O)CN1C(=O)OC(c2ccc(F)cc2)(c2ccc(F)cc2)[C@@H]1C(C)(C)C [Example 35, [(S)-4-tert-Butyl-5,5-bis-(4-fluoro-phenyl)-2-oxo-oxazolidin-3-yl]-acetic acid ethyl ester] |

Continued, compound first:

| SMILES | pIC50 |
| --- | --- |
| CCOC(=O)CN1C(=O)O[C@@H](c2ccc(F)cc2)[C@H]1c1cccc(C(F)(F)F)c1 (racemic) [Example 31, [(4RS,5SR)-5-(4-Fluoro-phenyl)-2-oxo-4-(3-trifluoromethyl-phenyl)-oxazolidin-3-yl]-acetic acid ethyl ester] | 5.12 |
| CCOC(=O)CN1C(=O)O[C@@H](c2cccc(C(F)(F)F)c2)[C@H]1c1ccc(F)cc1 (racemic) [Example 32, [(4RS,5SR)-4-(4-Fluoro-phenyl)-2-oxo-5-(3-trifluoromethyl-phenyl)-oxazolidin-3-yl]-acetic acid ethyl ester] | 6.22 |
| CNC(=O)CN1C(=O)O[C@@H](c2cccc(C(F)(F)F)c2)[C@H]1c1ccc(F)cc1 (racemic) [Example 36] | 5.18 |
| N#CCN1C(=O)O[C@@H](c2cccc(C(F)(F)F)c2)[C@H]1c1ccc(F)cc1 (racemic) [Example 38] | 5.80 |
| Cc1coc(CN2C(=O)O[C@@H](c3cccc(C(F)(F)F)c3)[C@H]2c2ccc(F)cc2)n1 (racemic) [Example 40] | 5.16 |
| NC(=O)CN1C(=O)OC(c2ccc(F)cc2)(c2ccc(F)cc2)[C@@H]1c1ccccc1 [Example 1, (S)-2-(5,5-bis(4-fluorophenyl)-2-oxo-4-phenyloxazolidin-3-yl)acetamide] | 6.07 |
| NC(=O)CN1C(=O)OC(c2ccccc2F)(c2ccccc2F)[C@@H]1c1ccccc1 [Example 2, 2-[(S)-5,5-Bis-(2-fluoro-phenyl)-2-oxo-4-phenyl-oxazolidin-3-yl]-acetamide] | 6.08 |
| CCOC(=O)CN1C(=O)OC(c2ccc(F)cc2)(c2ccc(F)cc2)C1c1ccc(F)cc1F (stereo not shown) [Example 4, [4-(2,4-Difluoro-phenyl)-5,5-bis-(4-fluoro-phenyl)-2-oxo-oxazolidin-3-yl]-acetic acid ethyl ester] | 5.50 |
| CCOC(=O)CN1C(=O)OC(c2ccc(F)cc2)(c2ccc(F)cc2)[C@@H]1c1ccc(F)cc1 [Example 6, [(S)-4,5,5-Tris-(4-fluoro-phenyl)-2-oxo-oxazolidin-3-yl]acetic acid ethyl ester] | 5.87 |
| NC(=O)CN1C(=O)OC(c2ccc(F)cc2)(c2ccc(F)cc2)C1c1c(F)cccc1F (stereo not shown) [Example 8, 2-[4-(2,6-Difluoro-phenyl)-5,5-bis-(4-fluoro-phenyl)-2-oxo-oxazolidin-3-yl]-acetamide] | 5.15 |
| CCOC(=O)CN1C(=O)OC(c2ccc(F)cc2)(c2ccc(F)cc2)[C@@H]1c1ccccc1F [Example 10, [5,5-Bis-(4-fluoro-phenyl)-4-(2-fluoro-phenyl)-2-oxo-oxazolidin-3-yl]-acetic acid ethyl ester] | 5.72 |
| CCOC(=O)CN1C(=O)OC(c2ccccc2)(c2ccccc2)[C@@H]1c1ccccc1F [Example 16, [(S)-4-(2-Fluoro-phenyl)-2-oxo-5,5-diphenyl-oxazolidin-3-yl]-acetic acid ethyl ester] | 6.00 |
| NC(=O)CN1C(=O)NC(c2ccc(F)cc2)(c2ccc(F)cc2)[C@@H]1c1ccccc1 [Example 18, (S)-2-(4,4-bis(4-fluorophenyl)-2-oxo-5-phenylimidazolidin-1-yl)acetamide] | 5.43 |
| Cc1ccccc1[C@@H]1N(CC(N)=O)C(=O)OC1(c1ccc(F)cc1)c1ccc(F)cc1 [Example 20, 2-[(S)-5,5-Bis-(4-fluoro-phenyl)-2-oxo-4-o-tolyl-oxazolidin-3-yl]-acetamide] | 5.66 |
| COC(=O)CN1C(=O)OC(c2ccc(F)cc2)(c2ccc(F)cc2)[C@@H]1c1ccccc1F [Example 21, (S)-methyl 2-(4-(2-fluorophenyl)-5,5-bis(4-fluorophenyl)-2-oxooxazolidin-3-yl)acetate] | 6.19 |
| N#CCN1C(=O)OC(c2ccc(F)cc2)(c2ccc(F)cc2)[C@@H]1c1ccccc1F [Example 24, [(S)-5,5-Bis-(4-fluoro-phenyl)-4-(2-fluoro-phenyl)-2-oxo-oxazolidin-3-yl]-acetonitrile] | 5.83 |
| NC(=O)CN1C(=O)OC(c2ccc(F)cc2)(c2ccc(F)cc2)C1c1cccnc1 (stereo not shown) [Example 27, 2-(5,5-bis(4-fluorophenyl)-2-oxo-4-(pyridin-3-yl)oxazolidin-3-yl)acetamide] | 5.17 |
| NC(=O)CN1C(=O)OC(c2cccc(Cl)c2)(c2cccc(Cl)c2)[C@@H]1c1ccccc1 [Example 29, 2-[(S)-5,5-Bis-(3-chloro-phenyl)-2-oxo-4-phenyl-oxazolidin-3-yl]-acetamide] | 5.17 |
